Results published in paper doi:10.1101/2025.02.11.637513v1 (bioRxiv, 2025).
“And” between values parts separate entries of the source, which are not always exact repeats. Identical values can stand only once. Non-standard residues stand in square brackets, D forms with d. No end group written: not given here. *: point of attachment. Bip = N[C@@H](Cc1ccc(-c2ccccc2)cc1)C(=O)O; Hyp = O=C(O)[C@@H]1C[C@@H](O)CN1; Tic = O=C(O)[C@@H]1Cc2ccccc2CN1; Cha = N[C@@H](CC1CCCCC1)C(=O)O; Tle = CC(C)(C)[C@H](N)C(=O)O; Bn = c1ccc(C*)cc1

Key:
Assay in all cases: tetrapeptide-ACC substrate cleavage kinetics
Assay type in all cases: biochemical
[1] = target: T1, human caspase-4 (Homo sapiens, UniProt P49662); settings: Ac-P4-P3-P2-Asp-ACC substrate, 0.05-500 μM, 35-200 nM enzyme, 37°C, triplicate
T1 sequence (P49662 81-270 limits assumed): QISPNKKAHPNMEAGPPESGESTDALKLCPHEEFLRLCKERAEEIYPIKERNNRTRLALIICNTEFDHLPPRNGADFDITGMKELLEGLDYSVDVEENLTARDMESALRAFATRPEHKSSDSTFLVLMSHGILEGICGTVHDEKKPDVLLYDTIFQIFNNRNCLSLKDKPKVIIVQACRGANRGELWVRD
T1 sequence (P49662 290-377 limits assumed): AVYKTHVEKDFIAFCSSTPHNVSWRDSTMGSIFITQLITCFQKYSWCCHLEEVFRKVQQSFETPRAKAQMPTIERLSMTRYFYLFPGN

[2] = target: T2, human caspase-9 (Homo sapiens, UniProt P55211); settings: Ac-P4-P3-P2-Asp-ACC substrate, 0.05-500 μM, 20-150 nM enzyme, 37°C, triplicate
T2 sequence (P55211 1-315 limits assumed): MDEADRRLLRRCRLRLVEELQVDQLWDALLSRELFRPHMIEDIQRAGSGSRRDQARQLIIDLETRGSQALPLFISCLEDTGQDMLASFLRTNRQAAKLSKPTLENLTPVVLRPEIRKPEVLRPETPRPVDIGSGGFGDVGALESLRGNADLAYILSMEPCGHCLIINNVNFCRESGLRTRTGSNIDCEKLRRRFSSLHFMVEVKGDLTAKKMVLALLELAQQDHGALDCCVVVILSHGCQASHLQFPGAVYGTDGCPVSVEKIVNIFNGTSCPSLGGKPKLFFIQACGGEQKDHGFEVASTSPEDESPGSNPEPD
T2 sequence (P55211 331-416 limits assumed): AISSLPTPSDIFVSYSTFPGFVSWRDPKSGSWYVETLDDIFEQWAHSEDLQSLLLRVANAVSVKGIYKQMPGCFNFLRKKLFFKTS

[3] = target: human caspase-8 (Homo sapiens, UniProt Q14790); settings: Ac-P4-P3-P2-Asp-ACC substrate, 0.05-500 μM, 6-42 nM enzyme, 37°C, triplicate
human caspase-8, sequence (Q14790 217-374 limits assumed): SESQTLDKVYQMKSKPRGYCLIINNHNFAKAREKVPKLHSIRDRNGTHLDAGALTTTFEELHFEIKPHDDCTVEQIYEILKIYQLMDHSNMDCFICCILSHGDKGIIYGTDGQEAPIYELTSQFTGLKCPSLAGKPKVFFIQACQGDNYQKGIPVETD
human caspase-8, sequence (Q14790 385-479 limits assumed): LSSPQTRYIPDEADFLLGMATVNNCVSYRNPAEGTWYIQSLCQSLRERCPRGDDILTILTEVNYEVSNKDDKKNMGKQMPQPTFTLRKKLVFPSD

[4] = target: T3, human caspase-5 (Homo sapiens, UniProt P51878); settings: Ac-P4-P3-P2-Asp-ACC substrate, 0.05-500 μM, 20-250 nM enzyme, 37°C, triplicate
T3 sequence (P51878 137-327 limits assumed): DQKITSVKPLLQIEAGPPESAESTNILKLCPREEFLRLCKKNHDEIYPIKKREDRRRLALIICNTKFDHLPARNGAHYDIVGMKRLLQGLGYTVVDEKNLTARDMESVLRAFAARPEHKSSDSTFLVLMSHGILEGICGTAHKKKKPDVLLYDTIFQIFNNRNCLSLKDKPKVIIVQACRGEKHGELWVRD
T3 sequence (P51878 347-434 limits assumed): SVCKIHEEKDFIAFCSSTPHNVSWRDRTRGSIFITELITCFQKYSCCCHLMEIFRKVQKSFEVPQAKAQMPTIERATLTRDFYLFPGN

[5] = target: T4, human caspase-7 (Homo sapiens, UniProt P55210); settings: Ac-P4-P3-P2-Asp-ACC substrate, 0.05-500 μM, 40-400 nM enzyme, 37°C, triplicate
T4 sequence (P55210 24-198 limits assumed): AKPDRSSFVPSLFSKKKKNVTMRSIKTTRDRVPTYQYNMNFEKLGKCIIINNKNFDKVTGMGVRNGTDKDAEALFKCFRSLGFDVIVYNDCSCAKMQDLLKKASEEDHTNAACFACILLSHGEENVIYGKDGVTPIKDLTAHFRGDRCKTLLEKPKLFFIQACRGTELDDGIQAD
T4 sequence (P55210 207-303 limits assumed): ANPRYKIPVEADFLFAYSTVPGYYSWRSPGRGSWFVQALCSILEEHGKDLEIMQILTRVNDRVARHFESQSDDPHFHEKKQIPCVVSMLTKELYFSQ

[6] = target: T5, human caspase-1 (Homo sapiens, UniProt P29466); settings: Ac-P4-P3-P2-Asp-ACC substrate, 0.05-500 μM, 2-15 nM enzyme, 37°C, triplicate
T5 sequence (P29466 120-297 limits assumed): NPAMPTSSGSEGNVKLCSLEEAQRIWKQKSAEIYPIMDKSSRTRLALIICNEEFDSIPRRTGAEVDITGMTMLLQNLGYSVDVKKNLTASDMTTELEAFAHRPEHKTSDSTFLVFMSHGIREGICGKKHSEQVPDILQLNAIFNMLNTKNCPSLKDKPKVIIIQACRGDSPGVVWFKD
T5 sequence (P29466 317-404 limits assumed): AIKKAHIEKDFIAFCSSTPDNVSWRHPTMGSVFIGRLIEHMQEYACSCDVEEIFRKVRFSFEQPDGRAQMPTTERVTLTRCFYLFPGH

[7] = target: T6, human caspase-3 (Homo sapiens, UniProt P42574); settings: Ac-P4-P3-P2-Asp-ACC substrate, 0.05-500 μM, 3-35 nM enzyme, 37°C, triplicate
T6 sequence (P42574 29-175 limits assumed): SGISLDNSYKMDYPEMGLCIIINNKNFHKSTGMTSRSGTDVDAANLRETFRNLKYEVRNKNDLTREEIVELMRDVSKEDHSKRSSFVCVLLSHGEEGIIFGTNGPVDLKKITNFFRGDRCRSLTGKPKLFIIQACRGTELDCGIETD
T6 sequence (P42574 176-277 limits assumed): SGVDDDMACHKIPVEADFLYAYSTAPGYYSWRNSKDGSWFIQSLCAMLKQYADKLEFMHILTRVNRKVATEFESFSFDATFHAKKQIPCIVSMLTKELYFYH

| Substance | kcat/KM caspase-4 [1] | kcat/KM caspase-9 [2] | kcat/KM caspase-8 [3] | kcat/KM caspase-5 [4] | kcat/KM caspase-7 [5] | kcat/KM caspase-1 [6] | kcat/KM caspase-3 [7] |
| --- | --- | --- | --- | --- | --- | --- | --- |
| Trp(Me)-Glu-His(Bzl)-Asp | 15 800 M^-1s^-1 | 6 670 M^-1s^-1 | 7 620 M^-1s^-1 | 20 140 M^-1s^-1 | 280 M⁻¹ s⁻¹ | 623 800 M^-1s^-1 | 6 300 M^-1s^-1 |
| Tle-hGlu-Thr(Bzl)-Asp | 2 130 M^-1s^-1 | 7 820 M^-1s^-1 | 125 800 M^-1s^-1 | 5 750 M^-1s^-1 | 17 430 M^-1s^-1 | 12 400 M^-1s^-1 | 179 800 M^-1s^-1 |
| Tyr-Tyr(2,6Cl2Bzl)-His-Asp | < 10 M⁻¹ s⁻¹ | 310 M⁻¹ s⁻¹ | 1 050 M^-1s^-1 | 1 560 M^-1s^-1 | 50 M⁻¹ s⁻¹ | 8 700 M^-1s^-1 | 1 240 M^-1s^-1 |
| V[Bip]HD | 1 640 M^-1s^-1 | 1 790 M^-1s^-1 | 2 710 M^-1s^-1 | 380 M⁻¹ s⁻¹ | 190 M⁻¹ s⁻¹ | 9 100 M^-1s^-1 | 15 820 M^-1s^-1 |
| V[Hyp](Bn)HD | < 10 M⁻¹ s⁻¹ | 660 M⁻¹ s⁻¹ | 3 260 M^-1s^-1 | < 10 M⁻¹ s⁻¹ | 10 M⁻¹ s⁻¹ | < 10 M⁻¹ s⁻¹ | 510 M⁻¹ s⁻¹ |
| Tyr-Lys-Met-Asp | 180 M⁻¹ s⁻¹ | 50 M⁻¹ s⁻¹ | 210 M⁻¹ s⁻¹ | < 10 M⁻¹ s⁻¹ | 10 M⁻¹ s⁻¹ | 9 700 M^-1s^-1 | 50 M⁻¹ s⁻¹ |
| [Cha]E[Tic]D | 37 900 M^-1s^-1 | 7 760 M^-1s^-1 | 7 860 M^-1s^-1 | 28 860 M^-1s^-1 | 950 M⁻¹ s⁻¹ | 159 100 M^-1s^-1 | 10 440 M^-1s^-1 |
| W[Tle]HD | 10 640 M^-1s^-1 | 10 220 M^-1s^-1 | 1 240 M^-1s^-1 | 12 930 M^-1s^-1 | 40 M⁻¹ s⁻¹ | 271 900 M^-1s^-1 | 600 M⁻¹ s⁻¹ |
| Pro-Bip-His(Bzl)-Asp | 590 M⁻¹ s⁻¹ | 6 990 M^-1s^-1 | 2 750 M^-1s^-1 | 310 M⁻¹ s⁻¹ | 40 M⁻¹ s⁻¹ | 13 800 M^-1s^-1 | 1 260 M^-1s^-1 |
| Trp-Glu-His-Asp | 18 000 M^-1s^-1 | 8 500 M^-1s^-1 | 14 900 M^-1s^-1 | 26 800 M^-1s^-1 | 410 M⁻¹ s⁻¹ | 552 400 M^-1s^-1 | 8 970 M^-1s^-1 |
| YT(Bn)HD | 1 260 M^-1s^-1 | 7 970 M^-1s^-1 | 4 760 M^-1s^-1 | 6 920 M^-1s^-1 | 270 M⁻¹ s⁻¹ | 201 400 M^-1s^-1 | 4 500 M^-1s^-1 |
| Val-hGlu-Thr(Bzl)-Asp | 1 840 M^-1s^-1 | 6 770 M^-1s^-1 | 85 540 M^-1s^-1 | 5 430 M^-1s^-1 | 16 800 M^-1s^-1 | 21 700 M^-1s^-1 | 163 200 M^-1s^-1 |
| Trp-Lys-Gln-Asp | 320 M⁻¹ s⁻¹ | 10 M⁻¹ s⁻¹ | 30 M⁻¹ s⁻¹ | 160 M⁻¹ s⁻¹ | < 10 M⁻¹ s⁻¹ | 41 600 M^-1s^-1 | < 10 M⁻¹ s⁻¹ |
| Trp-Gln-Pro-Asp | 3 470 M^-1s^-1 | 190 M⁻¹ s⁻¹ | 2 480 M^-1s^-1 | 5 420 M^-1s^-1 | 70 M⁻¹ s⁻¹ | 124 300 M^-1s^-1 | 1 410 M^-1s^-1 |
| Phe-Leu-Thr-Asp | 450 M⁻¹ s⁻¹ | 460 M⁻¹ s⁻¹ | 3 050 M^-1s^-1 | 1 190 M^-1s^-1 | 450 M⁻¹ s⁻¹ | 50 000 M^-1s^-1 | 3 490 M^-1s^-1 |
| Tle-Bpa-His(Bzl)-Asp | 4 390 M^-1s^-1 | 4 210 M^-1s^-1 | 6 400 M^-1s^-1 | 2 650 M^-1s^-1 | 100 M⁻¹ s⁻¹ | 25 300 M^-1s^-1 | 23 360 M^-1s^-1 |
| Leu-Glu-His-Asp | 8 950 M^-1s^-1 | 12 700 M^-1s^-1 | 186 000 M^-1s^-1 | 21 500 M^-1s^-1 | 730 M⁻¹ s⁻¹ | 97 500 M^-1s^-1 | 12 600 M^-1s^-1 |
| Tyr-Lys-Ala-Asp | 140 M⁻¹ s⁻¹ | 50 M⁻¹ s⁻¹ | 210 M⁻¹ s⁻¹ | 180 M⁻¹ s⁻¹ | < 10 M⁻¹ s⁻¹ | 10 800 M^-1s^-1 | < 10 M⁻¹ s⁻¹ |
| [Cha]EHD | 21 340 M^-1s^-1 and 25 050 M^-1s^-1 | 8 770 M^-1s^-1 and 9 270 M^-1s^-1 | 28 040 M^-1s^-1 and 27 690 M^-1s^-1 | 34 640 M^-1s^-1 and 48 140 M^-1s^-1 | 370 M⁻¹ s⁻¹ and 380 M⁻¹ s⁻¹ | 184 300 M^-1s^-1 and 113 800 M^-1s^-1 | 6 390 M^-1s^-1 and 6 530 M^-1s^-1 |
| Ile-Glu-Thr-Asp | 1 010 M^-1s^-1 | 2 300 M^-1s^-1 | 95 400 M^-1s^-1 | 2 850 M^-1s^-1 | 3 400 M^-1s^-1 | 1 430 M^-1s^-1 | 21 200 M^-1s^-1 |
